Data as given in PubChem BioAssay AID270 (DTP/NCI, 2004).
Where “and” joins values, the source holds several entries; their conditions need not be identical. Equal entries are not always repeated. Results filed as inconclusive are left out.

System: BDF1 mice, s.c. Lewis lung carcinoma, T/C %
Experiment: NCI In Vivo Anticancer Drug Screen. Data for tumor model Lewis Lung Carcinoma (subcutaneous) in B6D2F1 (BDF1) mice
Procedure, shortened: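 Tumor-bearing mice were treated with test compound, and either survival or tumor size was recorded. Values are the treated-group measurement divided by that of the vehicle-treated control group.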

[1] = endpoint: median survival time, dose: 3.12 mg/kg/injection, schedule: Q01DX009 (ip), vehicle: saline, higher = longer survival
[2] = endpoint: median survival time, dose: 12.5 mg/kg/injection, schedule: Q01DX009 (ip), vehicle: saline, higher = longer survival
[3] = endpoint: median survival time, dose: 25.0 mg/kg/injection, schedule: Q01DX009 (ip), vehicle: saline, higher = longer survival
[4] = endpoint: mean tumor weight, dose: 100.0 mg/kg/injection, schedule: Q01DX011 (ip), vehicle: carboxymethylcellulose (CMC), higher = larger tumour

Structure (SMILES): COc1ccc(CC2C(=O)NC(C)C(=O)N(C)C3C(=O)N(C)C(Cc4ccc(O)c(c4)Oc4ccc(cc4)C3O)C(=O)NC(C)C(=O)NC(C)C(=O)N2C)cc1 (stereo unspecified)
- T/C (endpoint: median survival time, dose: 0.25 mg/kg/injection, schedule: Q01DX009 (ip), vehicle: saline, higher = longer survival): 96 % of control
- T/C (endpoint: median survival time, dose: 0.5 mg/kg/injection, schedule: Q01DX009 (ip), vehicle: saline, higher = longer survival): 97 % of control
- T/C (endpoint: median survival time, dose: 1.0 mg/kg/injection, schedule: Q01DX009 (ip), vehicle: saline, higher = longer survival): 113 % of control
- T/C (endpoint: median survival time, dose: 2.0 mg/kg/injection, schedule: Q01DX009 (ip), vehicle: saline, higher = longer survival): 87 % of control

Structure (SMILES): O=c1cc(-c2ccc(O)cc2)oc2c(O)c(O)c(O)c(O)c12
- T/C (endpoint: mean tumor weight, dose: 50.0 mg/kg/injection, schedule: Q01DX011 (ip), vehicle: saline, higher = larger tumour): 70 % of control
- T/C (endpoint: mean tumor weight, dose: 100.0 mg/kg/injection, schedule: Q01DX011 (ip), vehicle: saline, higher = larger tumour): 73 % of control
- T/C (endpoint: mean tumor weight, dose: 200.0 mg/kg/injection, schedule: Q01DX011 (ip), vehicle: saline, higher = larger tumour): 43 % of control

Structure (SMILES): CCCCCCCCCCCCNCCCCCCCCCCCC
- T/C (endpoint: mean tumor weight, dose: 2.5 mg/kg/injection, schedule: Q01DX011 (ip), vehicle: other, higher = larger tumour): 78 % of control
- T/C (endpoint: mean tumor weight, dose: 5.0 mg/kg/injection, schedule: Q01DX011 (ip), vehicle: other, higher = larger tumour): 67 % of control
- T/C (endpoint: mean tumor weight, dose: 10.0 mg/kg/injection, schedule: Q01DX011 (ip), vehicle: other, higher = larger tumour): 55 % of control

Structure (SMILES): COc1cc2c(cc1OC)-c1ccc3cc4c(cc3c1N(C)C2)OCO4
- T/C (endpoint: median survival time, dose: 5.0 mg/kg/injection, schedule: Q01DX009 (ip), vehicle: water, higher = longer survival): 89 % of control
- T/C (endpoint: median survival time, dose: 20.0 mg/kg/injection, schedule: Q01DX009 (ip), vehicle: water, higher = longer survival): 105 % of control
- T/C (endpoint: median survival time, dose: 40.0 mg/kg/injection, schedule: Q01DX009 (ip), vehicle: water, higher = longer survival): 89 % of control
- T/C (endpoint: median survival time, dose: 80.0 mg/kg/injection, schedule: Q01DX009 (ip), vehicle: water, higher = longer survival): 98 % of control

Structure (SMILES): CCCCOB(/C=C/Sc1ccccc1)OCCCC
- T/C (endpoint: median survival time, dose: 50.0 mg/kg/injection, schedule: Q01DX009 (ip), vehicle: saline with Tween-80, higher = longer survival): 95 % of control

Structure (SMILES): CC(C)=CC(=O)OCC[N+](C)(C)C
- T/C (endpoint: median survival time, dose: 1.56 mg/kg/injection, schedule: Q01DX009 (ip), vehicle: saline, higher = longer survival): 96 % of control
- T/C [1]: 103 % of control
- T/C [2]: 103 % of control
- T/C [3]: 113 % of control

Structure (SMILES): CO[C@@H]1[C@@H](OC2OC(C)C(OC3CC(C)(O)C(OC(=O)CC(C)C)C(C)O3)C(N(C)C)C2O)[C@@H](CC=O)C[C@@H](C)C(=O)/C=C/C2O[C@H]2C[C@@H](C)OC(=O)C[C@H]1OC(C)=O (stereo partly specified)
- T/C (endpoint: mean tumor weight, dose: 37.5 mg/kg/injection, schedule: Q01DX011 (ip), vehicle: other, higher = larger tumour): 98 % of control
- T/C (endpoint: mean tumor weight, dose: 37.5 mg/kg/injection, schedule: Q01DX011 (ip), vehicle: saline, higher = larger tumour): 83 % of control
- T/C (endpoint: mean tumor weight, dose: 75.0 mg/kg/injection, schedule: Q01DX011 (ip), vehicle: other, higher = larger tumour): 76 % of control
- T/C (endpoint: mean tumor weight, dose: 150.0 mg/kg/injection, schedule: Q01DX011 (ip), vehicle: other, higher = larger tumour): 47 % of control
- T/C (endpoint: mean tumor weight, dose: 150.0 mg/kg/injection, schedule: Q01DX011 (ip), vehicle: saline, higher = larger tumour): 63 % of control and 81 % of control
- T/C (endpoint: mean tumor weight, dose: 300.0 mg/kg/injection, schedule: Q01DX011 (ip), vehicle: other, higher = larger tumour): 15 % of control
- T/C (endpoint: mean tumor weight, dose: 300.0 mg/kg/injection, schedule: Q01DX011 (ip), vehicle: saline, higher = larger tumour): 44 % of control and 48 % of control

Structure (SMILES): O=C(O)CCC(=O)Nc1nccs1
- T/C (endpoint: mean tumor weight, dose: 50.0 mg/kg/injection, schedule: Q01DX011 (ip), vehicle: carboxymethylcellulose (CMC), higher = larger tumour): 77 % of control
- T/C [4]: 83 % of control
- T/C (endpoint: mean tumor weight, dose: 200.0 mg/kg/injection, schedule: Q01DX011 (ip), vehicle: carboxymethylcellulose (CMC), higher = larger tumour): 68 % of control
- T/C (endpoint: mean tumor weight, dose: 400.0 mg/kg/injection, schedule: Q01DX011 (ip), vehicle: carboxymethylcellulose (CMC), higher = larger tumour): 101 % of control

Structure (SMILES): NS(=O)(=O)c1ncnc2nc[nH]c12
- T/C (endpoint: mean tumor weight, dose: 5.0 mg/kg/injection, schedule: Q01DX011 (ip), vehicle: methylcellulose (MC), higher = larger tumour): 88 % of control
- T/C (endpoint: mean tumor weight, dose: 25.0 mg/kg/injection, schedule: Q01DX011 (ip), vehicle: methylcellulose (MC), higher = larger tumour): 87 % of control

Structure (SMILES): CC(C)(C)C(=O)O
- T/C (endpoint: mean tumor weight, dose: 37.0 mg/kg/injection, schedule: Q01DX011 (ip), vehicle: other, higher = larger tumour): 75 % of control
- T/C (endpoint: mean tumor weight, dose: 83.0 mg/kg/injection, schedule: Q01DX011 (ip), vehicle: other, higher = larger tumour): 159 % of control
- T/C (endpoint: mean tumor weight, dose: 125.0 mg/kg/injection, schedule: Q01DX011 (ip), vehicle: other, higher = larger tumour): 92 % of control

Structure (SMILES): Cn1c(=O)[nH]c2nncnc2c1=O
- T/C (endpoint: median survival time, dose: 8.0 mg/kg/injection, schedule: Q01DX009 (ip), vehicle: water, higher = longer survival): 108 % of control
- T/C (endpoint: median survival time, dose: 16.0 mg/kg/injection, schedule: Q01DX009 (ip), vehicle: water, higher = longer survival): 86 % of control
- T/C (endpoint: median survival time, dose: 37.5 micrograms/kg/injection, schedule: Q01DX009 (ip), vehicle: water, higher = longer survival): 123 % of control
- T/C (endpoint: median survival time, dose: 75.0 micrograms/kg/injection, schedule: Q01DX009 (ip), vehicle: water, higher = longer survival): 123 % of control
- T/C (endpoint: median survival time, dose: 150.0 micrograms/kg/injection, schedule: Q01DX009 (ip), vehicle: water, higher = longer survival): 111 % of control
- T/C (endpoint: median survival time, dose: 300.0 micrograms/kg/injection, schedule: Q01DX009 (ip), vehicle: water, higher = longer survival): 123 % of control

Structure (SMILES): CC(=O)CC(C)=O.CC(=O)CC(C)=O.CC(=O)CC(C)=O.[V]
- T/C [1]: 109 % of control
- T/C (endpoint: median survival time, dose: 6.25 mg/kg/injection, schedule: Q01DX009 (ip), vehicle: saline, higher = longer survival): 109 % of control
- T/C [2]: 94 % of control

Structure (SMILES): CC(C)=CCCC(C)CCO (stereo unspecified)
- T/C [4]: 72 % of control

Structure (SMILES): CCC[CH2][Sn]1([CH2]CCC)[N](S(=O)(=O)c2ccc(C)cc2)c2ccccc2[N]1S(=O)(=O)c1ccc(C)cc1
- T/C (endpoint: median survival time, dose: 1.5 mg/kg/injection, schedule: Q01DX009 (ip), vehicle: Klucel (hydroxypropylcellulose) (HPC), higher = longer survival): 111 % of control
- T/C (endpoint: median survival time, dose: 3.0 mg/kg/injection, schedule: Q01DX009 (ip), vehicle: Klucel (hydroxypropylcellulose) (HPC), higher = longer survival): 90 % of control
- T/C (endpoint: median survival time, dose: 6.0 mg/kg/injection, schedule: Q01DX009 (ip), vehicle: Klucel (hydroxypropylcellulose) (HPC), higher = longer survival): 101 % of control

Structure (SMILES): CC1=CC(=O)N(NC(N)=O)C1=O
- T/C [2]: 107 % of control
- T/C [3]: 104 % of control
- T/C (endpoint: median survival time, dose: 50.0 mg/kg/injection, schedule: Q01DX009 (ip), vehicle: saline, higher = longer survival): 90 % of control

Structure (SMILES): COc1cc(OC)cc(-c2cc(=O)c3c(OC)c(OC)c(OC)c(OC)c3o2)c1
- T/C (endpoint: mean tumor weight, dose: 25.0 mg/kg/injection, schedule: Q01DX011 (sc), vehicle: steriod suspending solution, higher = larger tumour): 64 % of control
- T/C (endpoint: mean tumor weight, dose: 50.0 mg/kg/injection, schedule: Q01DX011 (sc), vehicle: steriod suspending solution, higher = larger tumour): 87 % of control
- T/C (endpoint: mean tumor weight, dose: 100.0 mg/kg/injection, schedule: Q01DX011 (sc), vehicle: steriod suspending solution, higher = larger tumour): 82 % of control
- T/C (endpoint: mean tumor weight, dose: 200.0 mg/kg/injection, schedule: Q01DX011 (sc), vehicle: steriod suspending solution, higher = larger tumour): 81 % of control

Structure (SMILES): FC(F)(F)c1nc2nc(Cl)c(Cl)nc2[nH]1
- T/C (endpoint: median survival time, dose: 11.25 mg/kg/injection, schedule: Q01DX009 (ip), vehicle: Klucel (hydroxypropylcellulose) (HPC), higher = longer survival): 105 % of control
- T/C (endpoint: median survival time, dose: 22.5 mg/kg/injection, schedule: Q01DX009 (ip), vehicle: Klucel (hydroxypropylcellulose) (HPC), higher = longer survival): 101 % of control
- T/C (endpoint: median survival time, dose: 45.0 mg/kg/injection, schedule: Q01DX009 (ip), vehicle: Klucel (hydroxypropylcellulose) (HPC), higher = longer survival): 96 % of control
- T/C (endpoint: median survival time, dose: 90.0 mg/kg/injection, schedule: Q01DX009 (ip), vehicle: Klucel (hydroxypropylcellulose) (HPC), higher = longer survival): 98 % of control

Structure (SMILES): O
- T/C (endpoint: median survival time, dose: 100.0 mg/kg/injection, schedule: Q02DX009 (ip), vehicle: saline, higher = longer survival): 91 % of control
- T/C (endpoint: median survival time, dose: 200.0 mg/kg/injection, schedule: Q02DX009 (ip), vehicle: saline, higher = longer survival): 110 % of control
- T/C (endpoint: median survival time, dose: 600.0 mg/kg/injection, schedule: Q02DX009 (ip), vehicle: saline, higher = longer survival): 94 % of control

Structure (SMILES): Clc1ncnc2c1ncn2C1CCCO1 (stereo unspecified)
- T/C (endpoint: mean tumor weight, dose: 25.0 mg/kg/injection, schedule: Q01DX011 (ip), vehicle: other, higher = larger tumour): 91 % of control
- T/C (endpoint: mean tumor weight, dose: 50.0 mg/kg/injection, schedule: Q01DX011 (ip), vehicle: other, higher = larger tumour): 108 % of control
- T/C (endpoint: mean tumor weight, dose: 100.0 mg/kg/injection, schedule: Q01DX011 (ip), vehicle: other, higher = larger tumour): 81 % of control
- T/C (endpoint: mean tumor weight, dose: 200.0 mg/kg/injection, schedule: Q01DX011 (ip), vehicle: other, higher = larger tumour): 51 % of control and 62 % of control
- T/C (endpoint: mean tumor weight, dose: 400.0 mg/kg/injection, schedule: Q01DX011 (ip), vehicle: other, higher = larger tumour): 57 % of control
- T/C (endpoint: mean tumor weight, dose: 600.0 mg/kg/injection, schedule: Q01DX011 (ip), vehicle: other, higher = larger tumour): 42 % of control

Structure (SMILES): Nc1ncc(CNc2ccc(C(=O)NC(CCC(=O)O)C(=O)O)cc2)c(N)n1 (stereo unspecified)
- T/C (endpoint: median survival time, dose: 50.0 mg/kg/injection, schedule: Q01DX009 (ip), vehicle: Klucel (hydroxypropylcellulose) (HPC), higher = longer survival): 94 % of control
- T/C (endpoint: median survival time, dose: 100.0 mg/kg/injection, schedule: Q01DX009 (ip), vehicle: Klucel (hydroxypropylcellulose) (HPC), higher = longer survival): 100 % of control
- T/C (endpoint: median survival time, dose: 400.0 mg/kg/injection, schedule: Q01DX009 (ip), vehicle: Klucel (hydroxypropylcellulose) (HPC), higher = longer survival): 117 % of control
